Columns and labels:
[1] = Dissolution test of DAvp-1; type: physicochemical
Description: DAvp-1, which appeared in the white lyophilized powder, was synthesized following the solid phase peptide synthesis (SPPS) Fmoc protocol, and Mass Spectrometer (MS) and HPLC were used for quantitative and qualitative verification. A purity of 95.346% was determined with the HPLC methodology (Figure 3A). The mass-to-charge ratios of [M+8H]^8+, [M+7H]^7+, [M+6H]^6+, and [M+5H]^5+ were 594.5, 679.3, 792.3, and 950.5, respectively, and the highest peak of [M+5H]^5+ was selected to calculate the molecular weight (MW). The formula is (1) MW=m/z×C−C(1) where MW is the molecular weight, m/z is the mass-to-charge ratio, and C is the charge.
Homologous modeling has been developed for predicting the 3D structure of proteins and peptides originating from various organisms, and this most accurate modeling method was widely used in structural biology. Software simulations were applied to test if there was a positive interaction with TNFR1 [37]. […] A promising solubility is conducive to the development of drugs.

[2] = tested on: pro-inflammatory cytokines; settings: snake venom extracts; ref [2],[3],[4]; cited from earlier work
Text: Snake venoms have been used as traditional Chinese medicines for hundreds of years, and they have a positive effect on autoimmune inflammatory diseases such as rheumatoid arthritis. However, their active, effective ingredients and their mechanisms of action are not fully understood yet. Studies have shown that snake venom is a mixture of proteins and peptides with various biological activities, including anti-tumor, anti-inflammatory, anti-stroke, and analgesic activities. For example, snake venom extracts such as Cathelicidin-BF and Cathelicidin-CATH can inhibit pro-inflammatory cytokin ...

Row | Compound | solubility in PBS ([1]; 1 × phosphate buffer saline (PBS) (pH 7.1), lyophilized powder, qualitative) | solubility in DMSO ([1]; dimethyl sulfoxide (DMSO), lyophilized powder, qualitative) | solubility (overall) ([1]; dissolution test, in words) | solubility in ultrapure water ([1]; ultrapure water, lyophilized powder, qualitative) | effect on pro-inflammatory cytokines [2]
1 | CSCC[C@H](NC(=O)[C@H](CCCNC(=N)N)NC(=O)CNC(=O)[C@H](CCCNC(=N)N)NC(=O)[C@H](CC(C)C)NC(=O)[C@@H](NC(=O)[C@H](CC(C)C)NC(=O)[C@H](CO)NC(=O)[C@@H](N)CC(N)=O)C(C)C)C(=O)N[C@@H](CCCNC(=N)N)C(=O)N[C@@H](CC(=O)O)C(=O)N[C@H](C(=O)N[C@@H](CCCCN)C(=O)N[C@H](C(=O)N[C@@H](CCCNC(=N)N)C(=O)N[C@@H](CC(=O)O)C(=O)N[C@@H](CC(=O)O)C(=O)NCC(=O)N[C@@H](CCCNC(=N)N)C(=O)N[C@@H](CCCCN)C(=O)N[C@@H](CO)C(=O)N1CCC[C@H]1C(=O)N[C@@H](CO)C(=O)N[C@@H](Cc1c[nH]cn1)C(=O)N[C@@H](Cc1c[nH]cn1)C(=O)N[C@@H](CO)C(=O)N[C@@H](CCCCN)C(=O)N[C@@H](Cc1ccccc1)C(=O)N[C@@H](CO)C(=O)NCC(=O)NCC(=O)N[C@H](C(=O)N[C@@H](CCCNC(=N)N)C(=O)N[C@@H](CC(N)=O)C(=O)N[C@@H](Cc1c[nH]c2ccccc12)C(=O)N[C@@H](CCC(N)=O)C(=O)N[C@@H](CCCCN)C(=O)N[C@@H](CC(C)C)C(=O)N[C@H](C(=O)N[C@@H](CCCCN)C(=O)N[C@@H](CC(C)C)C(=O)O)C(C)C)[C@@H](C)O)C(C)C)C(C)C [DAvp-1] | could be dissolved | could be dissolved | good solubility | could be dissolved | 
2 | Cathelicidin-BF |  |  |  |  | can inhibit pro-inflammatory cytokines

Reference: article PMC8878721, “Screening of TNFR1 Binding Peptides from Deinagkistrodon acutus Venom through Phage Display” (Toxins, 2022)
